BindingDB's records for doi:10.1016/j.bmc.2008.07.037 (Merck Research Laboratories, 2008)

Assay: Inhibition of glucocorticoid-mediated human MMP1 expression in PMA stimulated A549 cells assessed as MMP1 protein level by ELISA

Structure (SMILES)	EC50
C[C@H]1C[C@H]2[C@@H]3CCC4=CC(=O)C=C[C@]4(C)[C@@]3(F)[C@@H](O)C[C@]2(C)[C@@]1(OC(=O)NC(C)(C)CC(C)(C)C)C(=O)CO [(8S,9R,10S,11S,13S,14S,16S,17R)-9-fluoro-11-hydroxy-17-(2-hydroxyacetyl)-10,13,16-trimethyl-3-oxo-6,7,8,9,10,11,12,13,14,15,16,17-dodecahydro-3H-cyclopenta[a]phenanthren-17-yl 2,4,4-trimethylpentan-2-ylcarbamate]	23.2 nM
C[C@H]1C[C@H]2[C@@H]3CCC4=CC(=O)C=C[C@]4(C)[C@@]3(F)[C@@H](O)C[C@]2(C)[C@@]1(OC(=O)NCCC(C)(C)C)C(=O)CO [(8S,9R,10S,11S,13S,14S,16S,17R)-9-fluoro-11-hydroxy-17-(2-hydroxyacetyl)-10,13,16-trimethyl-3-oxo-6,7,8,9,10,11,12,13,14,15,16,17-dodecahydro-3H-cyclopenta[a]phenanthren-17-yl 3,3-dimethylbutylcarbamate]	21 nM
C[C@H]1C[C@H]2[C@@H]3CCC4=CC(=O)C=C[C@]4(C)[C@@]3(F)[C@@H](O)C[C@]2(C)[C@@]1(OC(=O)NC1CCCCC1)C(=O)CO [(8S,9R,10S,11S,13S,14S,16S,17R)-9-fluoro-11-hydroxy-17-(2-hydroxyacetyl)-10,13,16-trimethyl-3-oxo-6,7,8,9,10,11,12,13,14,15,16,17-dodecahydro-3H-cyclopenta[a]phenanthren-17-yl cyclohexylcarbamate]	1.3 nM
C[C@H]1C[C@H]2[C@@H]3CCC4=CC(=O)C=C[C@]4(C)[C@@]3(F)[C@@H](O)C[C@]2(C)[C@@]1(OC(=O)NCC(C)(C)C)C(=O)CO [(8S,9R,10S,11S,13S,14S,16S,17R)-9-fluoro-11-hydroxy-17-(2-hydroxyacetyl)-10,13,16-trimethyl-3-oxo-6,7,8,9,10,11,12,13,14,15,16,17-dodecahydro-3H-cyclopenta[a]phenanthren-17-yl neopentylcarbamate]	0.1 nM
CCCCCNC(=O)O[C@]1(C(=O)CO)[C@@H](C)C[C@H]2[C@@H]3CCC4=CC(=O)C=C[C@]4(C)[C@@]3(F)[C@@H](O)C[C@@]21C [(8S,9R,10S,11S,13S,14S,16S,17R)-9-fluoro-11-hydroxy-17-(2-hydroxyacetyl)-10,13,16-trimethyl-3-oxo-6,7,8,9,10,11,12,13,14,15,16,17-dodecahydro-3H-cyclopenta[a]phenanthren-17-yl pentylcarbamate]	18 nM
CCC(C)NC(=O)O[C@]1(C(=O)CO)[C@@H](C)C[C@H]2[C@@H]3CCC4=CC(=O)C=C[C@]4(C)[C@@]3(F)[C@@H](O)C[C@@]21C (stereo partly drawn) [(8S,9R,10S,11S,13S,14S,16S,17R)-9-fluoro-11-hydroxy-17-(2-hydroxyacetyl)-10,13,16-trimethyl-3-oxo-6,7,8,9,10,11,12,13,14,15,16,17-dodecahydro-3H-cyclopenta[a]phenanthren-17-yl sec-butylcarbamate]	0.8 nM
CCC(C)(C)NC(=O)O[C@]1(C(=O)CO)[C@@H](C)C[C@H]2[C@@H]3CCC4=CC(=O)C=C[C@]4(C)[C@@]3(F)[C@@H](O)C[C@@]21C [(8S,9R,10S,11S,13S,14S,16S,17R)-9-fluoro-11-hydroxy-17-(2-hydroxyacetyl)-10,13,16-trimethyl-3-oxo-6,7,8,9,10,11,12,13,14,15,16,17-dodecahydro-3H-cyclopenta[a]phenanthren-17-yl tert-pentylcarbamate]	53.3 nM
COC(=O)[C@H](C)NC(=O)O[C@]1(C(=O)CO)[C@@H](C)C[C@H]2[C@@H]3CCC4=CC(=O)C=C[C@]4(C)[C@@]3(F)[C@@H](O)C[C@@]21C [(11beta,16beta)-9-Fluoro-11,21-dihydroxy-16-methyl-3,20-dioxopregna-1,4-dien-17-yl (1S)-1-(methoxycarbonyl)-ethylcarbamate]	83 nM
C[C@H](NC(=O)O[C@]1(C(=O)CO)[C@@H](C)C[C@H]2[C@@H]3CCC4=CC(=O)C=C[C@]4(C)[C@@]3(F)[C@@H](O)C[C@@]21C)c1ccccc1 [(11beta,16beta)-9-Fluoro-11,21-dihydroxy-16-methyl-3,20-dioxopregna-1,4-dien-17-yl (1S)-1-phenylethylcarbamate]	4.9 nM
C=CCNC(=O)O[C@]1(C(=O)CO)[C@@H](C)C[C@H]2[C@@H]3CCC4=CC(=O)C=C[C@]4(C)[C@@]3(F)[C@@H](O)C[C@@]21C [(11beta,16beta)-9-Fluoro-11,21-dihydroxy-16-methyl-3,20-dioxopregna-1,4-dien-17-yl allylcarbamate]	39 nM
CCCCNC(=O)O[C@]1(C(=O)CO)[C@@H](C)C[C@H]2[C@@H]3CCC4=CC(=O)C=C[C@]4(C)[C@@]3(F)[C@@H](O)C[C@@]21C [(11beta,16beta)-9-Fluoro-11,21-dihydroxy-16-methyl-3,20-dioxopregna-1,4-dien-17-yl butylcarbamate]	22 nM
C[C@H]1C[C@H]2[C@@H]3CCC4=CC(=O)C=C[C@]4(C)[C@@]3(F)[C@@H](O)C[C@]2(C)[C@@]1(OC(=O)NC1CCCC1)C(=O)CO [(11beta,16beta)-9-Fluoro-11,21-dihydroxy-16-methyl-3,20-dioxopregna-1,4-dien-17-yl cyclopentylcarbamate]	2.8 nM
CCNC(=O)O[C@]1(C(=O)CO)[C@@H](C)C[C@H]2[C@@H]3CCC4=CC(=O)C=C[C@]4(C)[C@@]3(F)[C@@H](O)C[C@@]21C [(11beta,16beta)-9-Fluoro-11,21-dihydroxy-16-methyl-3,20-dioxopregna-1,4-dien-17-yl ethylcarbamate]	15.9 nM
CC(C)NC(=O)O[C@]1(C(=O)CO)[C@@H](C)C[C@H]2[C@@H]3CCC4=CC(=O)C=C[C@]4(C)[C@@]3(F)[C@@H](O)C[C@@]21C [(11beta,16beta)-9-Fluoro-11,21-dihydroxy-16-methyl-3,20-dioxopregna-1,4-dien-17-yl isopropylcarbamate]	1.9 nM
CCCNC(=O)O[C@]1(C(=O)CO)[C@@H](C)C[C@H]2[C@@H]3CCC4=CC(=O)C=C[C@]4(C)[C@@]3(F)[C@@H](O)C[C@@]21C [(11beta,16beta)-9-Fluoro-11,21-dihydroxy-16-methyl-3,20-dioxopregna-1,4-dien-17-yl propylcarbamate]	18.7 nM
C[C@H]1C[C@H]2[C@@H]3CCC4=CC(=O)C=C[C@]4(C)[C@@]3(F)[C@@H](O)C[C@]2(C)[C@@]1(OC(=O)NC(C)(C)C)C(=O)CO [(11beta,16beta)-9-Fluoro-11,21-dihydroxy-16-methyl-3,20-dioxopregna-1,4-dien-17-yl tert-butylcarbamate]	1.6 nM
C[C@H]1C[C@H]2[C@@H]3CCC4=CC(=O)C=C[C@]4(C)[C@@]3(F)[C@@H](O)C[C@]2(C)[C@@]1(OC(=O)NC12CC3CC(CC(C3)C1)C2)C(=O)CO [Adamantan-1-yl-carbamic acid (8S,9R,10S,11S,13S,14S,16S,17R)-9-fluoro-11-hydroxy-17-(2-hydroxy-acetyl)-10,13,16-trimethyl-3-oxo-6,7,8,9,10,11,12,13,14,15,16,17-dodecahydro-3H-cyclopenta[a]phenanthren-17-yl este]	3.4 nM
